Here are results for 54 substances from publication PMC7932537, “Quantitative profiling of protease specificity” (PLoS Computational Biology, 2021).

Test [1] deals with MMP-9 (Homo sapiens, UniProt P14780). Nature of the test: K(obs) of individual phage substrates (set of 1369). The format is biochemical. The following applies: MMP9; individual phage substrate of the set of 1369 peptides; dash in sequence marks cleavage position.
In test [2] the target is T1, MMP-2 (Homo sapiens, UniProt P08253).
T1 sequence (P08253 110-660): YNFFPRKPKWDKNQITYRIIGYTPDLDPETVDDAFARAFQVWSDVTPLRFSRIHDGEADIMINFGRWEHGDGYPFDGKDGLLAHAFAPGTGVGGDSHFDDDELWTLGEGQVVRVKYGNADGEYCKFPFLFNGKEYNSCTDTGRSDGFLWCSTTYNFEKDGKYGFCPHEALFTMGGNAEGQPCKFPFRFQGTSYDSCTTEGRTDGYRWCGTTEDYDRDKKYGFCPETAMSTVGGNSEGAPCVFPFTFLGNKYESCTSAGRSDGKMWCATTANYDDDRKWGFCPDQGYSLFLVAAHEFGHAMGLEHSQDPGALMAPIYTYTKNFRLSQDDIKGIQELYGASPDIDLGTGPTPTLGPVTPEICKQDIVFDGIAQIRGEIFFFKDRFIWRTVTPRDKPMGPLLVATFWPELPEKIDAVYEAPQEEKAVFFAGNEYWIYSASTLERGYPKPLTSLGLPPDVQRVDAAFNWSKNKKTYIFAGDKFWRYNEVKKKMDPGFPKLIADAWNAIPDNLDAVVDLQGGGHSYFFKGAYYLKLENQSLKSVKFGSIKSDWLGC
The test is described as above. The format is biochemical. The settings on record: MMP2; individual phage substrate from the set of 1369 peptides; hyphen in the sequence marks the cleavage position.

The subject of test [3] is MMP-9. Kind of test: Substrate phage display with NGS: relative probability (RP) of P3-P1' tetramer clusters.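 Further: ratio of tetramer probability after protease selection to that in naive phage library.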 The format is biochemical, human. The following applies: MMP9; RP of the substrate's P3-P1' tetramer, substrate phage display with NGS.

MMP-9 (Homo sapiens, UniProt P14780), sequence (P14780 94-707): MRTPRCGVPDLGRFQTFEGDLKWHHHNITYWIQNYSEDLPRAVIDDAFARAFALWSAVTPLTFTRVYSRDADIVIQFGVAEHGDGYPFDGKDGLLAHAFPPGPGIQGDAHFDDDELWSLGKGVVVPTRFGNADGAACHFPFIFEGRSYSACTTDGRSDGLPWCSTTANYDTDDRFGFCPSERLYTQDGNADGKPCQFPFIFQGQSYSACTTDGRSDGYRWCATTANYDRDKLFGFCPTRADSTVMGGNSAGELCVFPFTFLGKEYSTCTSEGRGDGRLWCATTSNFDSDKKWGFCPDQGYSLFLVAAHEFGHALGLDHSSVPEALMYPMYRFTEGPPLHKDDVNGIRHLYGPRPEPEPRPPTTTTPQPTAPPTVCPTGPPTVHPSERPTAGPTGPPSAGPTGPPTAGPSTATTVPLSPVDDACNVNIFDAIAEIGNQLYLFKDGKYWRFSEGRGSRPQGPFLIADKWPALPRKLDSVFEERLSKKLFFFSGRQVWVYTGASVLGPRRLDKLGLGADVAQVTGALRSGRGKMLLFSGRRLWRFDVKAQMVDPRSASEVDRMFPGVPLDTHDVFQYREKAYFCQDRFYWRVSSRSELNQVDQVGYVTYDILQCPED

For the substance MALSS-LTASG, the “Kobs” value in test [1] came out at 0 M⁻¹ s⁻¹; in test [2], 7015.91 M⁻¹ s⁻¹. For the same substance, in test [3], the “relative probability (RP)” value turned out to be 4.987.
Turning to MFVRK-LTASG, the “Kobs” value stood at 4763.33 M⁻¹ s⁻¹ in test [1] and 10866.7 M⁻¹ s⁻¹ in test [2]. The “relative probability (RP)” value in test [3] came to 0.
With KHPYK-YTASG, the results for the “Kobs” value in test [1] and in test [2] were 12792.1 M⁻¹ s⁻¹ and 1816.46 M⁻¹ s⁻¹, respectively. Moreover, the “relative probability (RP)” value in test [3] turned out to be 33.5853.
In the case of GYPAG-LRTAS, the “Kobs” value in test [1] and in test [2] was 12792.1 M⁻¹ s⁻¹ in each case. Besides, in test [3], the “relative probability (RP)” value came out at 47.2274.
Regarding YGPSL-LTASG, the “Kobs” value in test [1] and in test [2] was 12792.1 M⁻¹ s⁻¹ each time. In addition, in test [3], the “relative probability (RP)” value is listed as 32.4935.
As for TPPVE-LTASG, the “Kobs” value in test [1] and in test [2] was 12792.1 M⁻¹ s⁻¹ throughout. Further, the “relative probability (RP)” value in test [3] was 35.1044.
In the case of YIPTA-FTASG, the “Kobs” value is 9740.44 M⁻¹ s⁻¹ in test [1] and 12792.1 M⁻¹ s⁻¹ in test [2]. Further, the “relative probability (RP)” value in test [3] worked out at 24.5969.
The corresponding values for QRPMD-LTASG are 12792.1 M⁻¹ s⁻¹, 12792.1 M⁻¹ s⁻¹ and 44.1549.
On to NAPNA-LTASG, for which the “Kobs” value in test [1] and in test [2] was 12792.1 M⁻¹ s⁻¹ throughout. In test [3], the “relative probability (RP)” value came out at 41.7392.
Take IFARS-LTASG: the “Kobs” value in test [1] and in test [2] was 12792.1 M⁻¹ s⁻¹ each time. For the same substance, the “relative probability (RP)” value in test [3] was found to be 26.1862.
As for ATLAA-LTASG, the figures for the “Kobs” value in test [1] and in test [2] were 0 M⁻¹ s⁻¹ and 12792.1 M⁻¹ s⁻¹, respectively. Also, in test [3], the “relative probability (RP)” value was determined as 6.32.
As to RLPIN-LTASG, the “Kobs” value in test [1] and in test [2] was 12792.1 M⁻¹ s⁻¹ each time. Also, the “relative probability (RP)” value in test [3] stood at 44.8884.
Turning to PKPAR-LTASG, the “Kobs” value in test [1] and in test [2] was 12792.1 M⁻¹ s⁻¹ throughout. Also, the “relative probability (RP)” value in test [3] is 40.1634.
Take YIPLV-YTASG: the “Kobs” value in test [1] is 1239.69 M⁻¹ s⁻¹; in test [2] it was 0 M⁻¹ s⁻¹. In addition, the “relative probability (RP)” value in test [3] was 9.417.
For SVPST-LTASG, the results for the “Kobs” value in test [1] and in test [2] were 5269.78 M⁻¹ s⁻¹ and 12792.1 M⁻¹ s⁻¹, respectively. Moreover, in test [3], the “relative probability (RP)” value was 36.3405.
Turning to KSISN-WTASG, the “Kobs” value in test [1] stood at 84.609 M⁻¹ s⁻¹; in test [2], 10866.7 M⁻¹ s⁻¹. Besides, in test [3], the “relative probability (RP)” value was 0.06259.
On to SGVRG-LFTTA, for which the results for the “Kobs” value in test [1] and in test [2] were 12792.1 M⁻¹ s⁻¹ and 6131.32 M⁻¹ s⁻¹, respectively. Moreover, the “relative probability (RP)” value in test [3] was 42.3063.
As to GGPST-LTASG, the “Kobs” value in test [1] is 4613.14 M⁻¹ s⁻¹; in test [2], 9740.44 M⁻¹ s⁻¹. In addition, the “relative probability (RP)” value in test [3] is recorded as 36.3405.
Consider SVPSA-ITASG, for which the “Kobs” value in test [1] and in test [2] was 12792.1 M⁻¹ s⁻¹ throughout. The “relative probability (RP)” value in test [3] was determined as 45.9388.
Turning to SGPWA-ITGTA, the “Kobs” value in test [1] and in test [2] was 12792.1 M⁻¹ s⁻¹ throughout. In addition, the “relative probability (RP)” value in test [3] came out at 50.8721.
Regarding GMLRA-MHTAS, the figures for the “Kobs” value in test [1] and in test [2] were 3253.29 M⁻¹ s⁻¹ and 6396.07 M⁻¹ s⁻¹, respectively. Further, the “relative probability (RP)” value in test [3] was 36.706.
Regarding QRVRG-VTASG, the entries for the “Kobs” value in test [1] and in test [2] were 619.843 M⁻¹ s⁻¹ and 1327.88 M⁻¹ s⁻¹, respectively. Also, the “relative probability (RP)” value in test [3] turned out to be 13.8249.
Take EHPGL-LTASG: the “Kobs” value in test [1] is 113.394 M⁻¹ s⁻¹; in test [2], 2996.69 M⁻¹ s⁻¹. Further, the “relative probability (RP)” value in test [3] worked out at 19.6268.
On to SSVSN-LTASG, for which the entries for the “Kobs” value in test [1] and in test [2] were 1610.61 M⁻¹ s⁻¹ and 12792.1 M⁻¹ s⁻¹, respectively. Further, the “relative probability (RP)” value in test [3] was determined as 31.0505.
For the substance RLPKL-LTASG, the “Kobs” value was determined as 6688.74 M⁻¹ s⁻¹ in test [1] and 1816.46 M⁻¹ s⁻¹ in test [2]. For the same substance, the “relative probability (RP)” value in test [3] is 35.7561.
As for RFPLK-VTASG, the “Kobs” value came to 3438.54 M⁻¹ s⁻¹ in test [1] and 0 M⁻¹ s⁻¹ in test [2]. Moreover, the “relative probability (RP)” value in test [3] was determined as 22.8859.
As to KVLSA-VTASG, the “Kobs” value in test [1] and in test [2] was 12792.1 M⁻¹ s⁻¹ each time. For the same substance, the “relative probability (RP)” value in test [3] was determined as 0.4242.
For SGPHY-LMMTA, the “Kobs” value in test [1] came to 6688.74 M⁻¹ s⁻¹; in test [2], 6396.07 M⁻¹ s⁻¹. For the same substance, the “relative probability (RP)” value in test [3] is on record as 37.3972.
Regarding RAPVA-FTASG, the “Kobs” value in test [1] and in test [2] was 12792.1 M⁻¹ s⁻¹ throughout. For the same substance, the “relative probability (RP)” value in test [3] is recorded as 39.0112.
As for GEPSA-YRTAS, the “Kobs” value in test [1] and in test [2] was 12792.1 M⁻¹ s⁻¹ throughout. Moreover, in test [3], the “relative probability (RP)” value came to 46.6524.
With SGPRW-LMSTA, the “Kobs” value in test [1] and in test [2] was 12792.1 M⁻¹ s⁻¹ each time. Further, the “relative probability (RP)” value in test [3] was determined as 47.776.
On to SGPAS-FSVTA, for which the “Kobs” value in test [1] was 2344.36 M⁻¹ s⁻¹; in test [2] it was 12792.1 M⁻¹ s⁻¹. Besides, the “relative probability (RP)” value in test [3] is listed as 30.2578.
For the substance SGPRF-LLDTA, the “Kobs” value worked out at 7386.83 M⁻¹ s⁻¹ in test [1] and 5889.62 M⁻¹ s⁻¹ in test [2]. The “relative probability (RP)” value in test [3] was 42.4535.
For KQLAS-LTASG, the “Kobs” value in test [1] turned out to be 690.17 M⁻¹ s⁻¹; in test [2], 12792.1 M⁻¹ s⁻¹. In addition, in test [3], the “relative probability (RP)” value came to 2.45.
The matching figures for LVVRA-HTASG: 5461.43 M⁻¹ s⁻¹, 4082.43 M⁻¹ s⁻¹ and 18.814.
Consider SGPGA-MMFTA, for which the “Kobs” value turned out to be 5090.5 M⁻¹ s⁻¹ in test [1] and 12792.1 M⁻¹ s⁻¹ in test [2]. In addition, the “relative probability (RP)” value in test [3] was found to be 36.3159.
The corresponding values for GWPSE-LRTAS are 12792.1 M⁻¹ s⁻¹, 12792.1 M⁻¹ s⁻¹ and 41.3266.
For SGPLK-ITRTA, the “Kobs” value in test [1] was 2837.92 M⁻¹ s⁻¹; in test [2] it was 0 M⁻¹ s⁻¹. In addition, in test [3], the “relative probability (RP)” value came to 38.9391.
As for GVPRG-VRTAS, the “Kobs” value is 10866.7 M⁻¹ s⁻¹ in test [1] and 12792.1 M⁻¹ s⁻¹ in test [2]. Moreover, the “relative probability (RP)” value in test [3] is recorded as 42.1832.
Consider SGPVH-MWNTA, for which the “Kobs” value in test [1] and in test [2] was 1154.21 M⁻¹ s⁻¹ in each case. In addition, the “relative probability (RP)” value in test [3] is reported as 35.975.
On to LQIGH-LTASG, for which the entries for the “Kobs” value in test [1] and in test [2] were 1870.4 M⁻¹ s⁻¹ and 12792.1 M⁻¹ s⁻¹, respectively. Also, in test [3], the “relative probability (RP)” value stood at 14.7862.
GRPAG-VKTAS: the “Kobs” value in test [1] worked out at 3079.62 M⁻¹ s⁻¹; in test [2], 12792.1 M⁻¹ s⁻¹. In addition, the “relative probability (RP)” value in test [3] was 31.0803.
The matching figures for KDPKF-LTASG: 10866.7 M⁻¹ s⁻¹, 4613.14 M⁻¹ s⁻¹ and 42.7484.
As to GMPLG-LRTAS, the “Kobs” value was found to be 12792.1 M⁻¹ s⁻¹ in test [1] and 10866.7 M⁻¹ s⁻¹ in test [2]. Besides, the “relative probability (RP)” value in test [3] is 48.9856.
The corresponding values for GRPSA-MTTAS are 9740.44 M⁻¹ s⁻¹, 3741.87 M⁻¹ s⁻¹ and 46.4881.
In the case of SGISA-LRKTA, the “Kobs” value in test [1] was 0 M⁻¹ s⁻¹; in test [2], 6688.74 M⁻¹ s⁻¹. The “relative probability (RP)” value in test [3] was 16.3812.
The matching figures for FHPSR-FTASG: 2916.17 M⁻¹ s⁻¹, 12792.1 M⁻¹ s⁻¹ and 21.0555.
In the case of ESIRG-LTASG, the “Kobs” value in test [1] was found to be 6688.74 M⁻¹ s⁻¹; in test [2] it was 12792.1 M⁻¹ s⁻¹. In addition, the “relative probability (RP)” value in test [3] is 41.2198.
As for WGTLA-LTASG, the entries for the “Kobs” value in test [1] and in test [2] were 4613.14 M⁻¹ s⁻¹ and 1112.44 M⁻¹ s⁻¹, respectively. Further, the “relative probability (RP)” value in test [3] is 8.919.
Consider ATLAA-WTASG, for which the “Kobs” value came out at 113.394 M⁻¹ s⁻¹ in test [1] and 10866.7 M⁻¹ s⁻¹ in test [2]. Besides, the “relative probability (RP)” value in test [3] turned out to be 1.553.
In the case of GSGRG-LWSET, the “Kobs” value worked out at 1373.05 M⁻¹ s⁻¹ in test [1] and 799.117 M⁻¹ s⁻¹ in test [2]. Besides, the “relative probability (RP)” value in test [3] was determined as 11.4523.
For GGSGN-LTVKT, the “Kobs” value in test [1] was 0 M⁻¹ s⁻¹; in test [2] it was 12792.1 M⁻¹ s⁻¹. Further, in test [3], the “relative probability (RP)” value worked out at 1.504.
With SGVRD-LYFTA, the “Kobs” value is 2916.17 M⁻¹ s⁻¹ in test [1] and 1030.73 M⁻¹ s⁻¹ in test [2]. Moreover, in test [3], the “relative probability (RP)” value was determined as 30.416.
SGWRA-YTGTA: the “Kobs” value in test [1] came out at 9740.44 M⁻¹ s⁻¹; in test [2], 2476.66 M⁻¹ s⁻¹. The “relative probability (RP)” value in test [3] worked out at 29.3104.
